Experimental data as given in ChEMBL document CHEMBL1137358, “Synthetic inhibitors of cytochrome P-450 2A6: inhibitory activity, difference spectra, mechanism of inhibition, and protein cocrystallization” (J Med Chem, 2006).
pKi: −log10 of the molar value.

How the values were obtained:
CYP2A6 over CYP2D6 = test: Selectivity for CYP2A6 over CYP2D6; conditions: human
CYP2A6 over CYP2E1 = test: Selectivity for CYP2A6 over CYP2E1; conditions: human
Cytochrome P450 2A6 [1] = target: T1, Cytochrome P450 2A6 (Homo sapiens, UniProt P11509); test: Inhibition of human CYP2A6
T1 sequence (P11509 whole entry): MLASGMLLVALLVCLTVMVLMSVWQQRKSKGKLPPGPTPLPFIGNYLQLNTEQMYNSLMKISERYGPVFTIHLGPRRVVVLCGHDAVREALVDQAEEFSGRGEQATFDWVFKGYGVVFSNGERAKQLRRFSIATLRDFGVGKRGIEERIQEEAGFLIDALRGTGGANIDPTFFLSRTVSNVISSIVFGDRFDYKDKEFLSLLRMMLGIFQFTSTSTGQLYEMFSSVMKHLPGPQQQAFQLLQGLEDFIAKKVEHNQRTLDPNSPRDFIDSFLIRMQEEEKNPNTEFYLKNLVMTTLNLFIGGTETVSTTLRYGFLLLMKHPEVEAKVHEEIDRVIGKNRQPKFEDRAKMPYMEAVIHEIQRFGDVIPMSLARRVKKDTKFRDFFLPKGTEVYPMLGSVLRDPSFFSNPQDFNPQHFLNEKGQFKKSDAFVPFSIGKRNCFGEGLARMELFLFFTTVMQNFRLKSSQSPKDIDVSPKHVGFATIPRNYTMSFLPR

Cytochrome P450 2D6 = Cytochrome P450 2D6 (Homo sapiens, UniProt P10635); test: Inhibition of human CYP2D6
Chain of Cytochrome P450 2D6 (P10635 whole entry): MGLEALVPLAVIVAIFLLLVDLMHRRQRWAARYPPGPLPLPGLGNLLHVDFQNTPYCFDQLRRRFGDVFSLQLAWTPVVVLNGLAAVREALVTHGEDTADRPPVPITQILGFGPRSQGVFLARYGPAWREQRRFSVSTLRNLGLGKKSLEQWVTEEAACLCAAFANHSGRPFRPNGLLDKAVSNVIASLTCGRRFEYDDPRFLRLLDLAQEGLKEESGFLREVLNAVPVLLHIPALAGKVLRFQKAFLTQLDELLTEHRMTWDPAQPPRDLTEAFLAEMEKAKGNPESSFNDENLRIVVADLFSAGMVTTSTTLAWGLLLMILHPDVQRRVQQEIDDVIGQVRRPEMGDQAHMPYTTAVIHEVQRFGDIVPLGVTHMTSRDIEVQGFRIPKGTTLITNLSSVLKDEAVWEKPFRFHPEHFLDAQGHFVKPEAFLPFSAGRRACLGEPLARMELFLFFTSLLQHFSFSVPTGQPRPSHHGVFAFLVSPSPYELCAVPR

Cytochrome P450 3A4 = Cytochrome P450 3A4 (Homo sapiens, UniProt P08684); test: Inhibition of human CYP3A4
Chain of Cytochrome P450 3A4 (P08684 whole entry): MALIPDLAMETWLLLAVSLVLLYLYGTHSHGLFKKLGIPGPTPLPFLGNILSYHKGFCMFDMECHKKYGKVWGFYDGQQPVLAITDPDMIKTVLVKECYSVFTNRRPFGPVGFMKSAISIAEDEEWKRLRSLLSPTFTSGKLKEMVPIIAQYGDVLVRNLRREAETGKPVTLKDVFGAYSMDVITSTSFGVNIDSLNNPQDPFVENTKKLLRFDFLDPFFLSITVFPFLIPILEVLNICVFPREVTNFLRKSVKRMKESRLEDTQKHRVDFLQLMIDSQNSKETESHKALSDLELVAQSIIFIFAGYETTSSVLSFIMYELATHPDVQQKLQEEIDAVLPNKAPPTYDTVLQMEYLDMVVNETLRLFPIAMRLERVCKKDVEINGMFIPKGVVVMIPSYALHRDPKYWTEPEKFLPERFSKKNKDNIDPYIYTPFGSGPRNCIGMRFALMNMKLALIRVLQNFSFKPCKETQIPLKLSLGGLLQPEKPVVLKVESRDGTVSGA

Cytochrome P450 2B6 = target: T2, Cytochrome P450 2B6 (Homo sapiens, UniProt P20813); test: Inhibition of human CYP2B6
T2 sequence (P20813 whole entry): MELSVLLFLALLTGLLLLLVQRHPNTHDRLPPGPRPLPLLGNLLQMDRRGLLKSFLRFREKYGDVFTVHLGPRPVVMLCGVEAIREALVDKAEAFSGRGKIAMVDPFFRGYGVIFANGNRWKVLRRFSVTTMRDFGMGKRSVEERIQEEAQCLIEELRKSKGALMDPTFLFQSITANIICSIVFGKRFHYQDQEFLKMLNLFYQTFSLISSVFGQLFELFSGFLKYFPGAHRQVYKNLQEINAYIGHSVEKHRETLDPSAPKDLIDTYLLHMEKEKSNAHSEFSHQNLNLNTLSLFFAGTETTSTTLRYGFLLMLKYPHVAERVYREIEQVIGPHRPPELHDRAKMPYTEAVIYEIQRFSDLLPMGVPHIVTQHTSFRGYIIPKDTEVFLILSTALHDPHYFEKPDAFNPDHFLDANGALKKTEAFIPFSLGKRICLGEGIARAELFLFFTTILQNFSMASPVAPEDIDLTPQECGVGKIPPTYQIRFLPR

Cytochrome P450 2C19 = Cytochrome P450 2C19 (Homo sapiens, UniProt P33261); test: Inhibition of human CYP2C19
Chain of Cytochrome P450 2C19 (P33261 whole entry): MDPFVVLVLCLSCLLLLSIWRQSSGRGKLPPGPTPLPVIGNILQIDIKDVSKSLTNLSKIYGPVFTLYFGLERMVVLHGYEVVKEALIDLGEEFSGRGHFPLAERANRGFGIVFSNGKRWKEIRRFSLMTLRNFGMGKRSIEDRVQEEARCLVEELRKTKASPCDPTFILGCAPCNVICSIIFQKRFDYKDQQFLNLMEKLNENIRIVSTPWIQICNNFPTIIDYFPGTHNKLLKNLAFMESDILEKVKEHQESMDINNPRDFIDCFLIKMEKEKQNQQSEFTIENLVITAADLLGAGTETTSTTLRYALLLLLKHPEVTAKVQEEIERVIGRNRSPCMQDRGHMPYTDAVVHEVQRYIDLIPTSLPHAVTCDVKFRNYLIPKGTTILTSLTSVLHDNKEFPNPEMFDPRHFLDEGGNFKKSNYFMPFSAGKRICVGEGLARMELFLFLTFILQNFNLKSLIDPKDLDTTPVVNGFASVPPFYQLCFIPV

Cytochrome P450 2E1 = Cytochrome P450 2E1 (Homo sapiens, UniProt P05181); test: Inhibition of human CYP2E1
Chain of Cytochrome P450 2E1 (P05181 whole entry): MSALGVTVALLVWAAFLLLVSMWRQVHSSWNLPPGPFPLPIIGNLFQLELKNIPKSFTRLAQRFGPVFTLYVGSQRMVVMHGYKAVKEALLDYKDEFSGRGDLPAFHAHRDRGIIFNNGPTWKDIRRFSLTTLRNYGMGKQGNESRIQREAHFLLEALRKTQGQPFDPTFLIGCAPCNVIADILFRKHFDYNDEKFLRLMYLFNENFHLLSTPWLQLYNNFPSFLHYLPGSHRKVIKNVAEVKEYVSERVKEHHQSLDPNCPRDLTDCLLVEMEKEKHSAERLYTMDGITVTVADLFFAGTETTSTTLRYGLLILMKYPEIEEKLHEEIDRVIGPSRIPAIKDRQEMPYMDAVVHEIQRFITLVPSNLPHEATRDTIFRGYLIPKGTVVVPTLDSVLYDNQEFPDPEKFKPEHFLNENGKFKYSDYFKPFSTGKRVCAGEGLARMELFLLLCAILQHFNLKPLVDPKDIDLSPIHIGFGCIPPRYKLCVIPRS

CYP2A6 over CYP3A4 = test: Selectivity for CYP2A6 over CYP3A4; conditions: human
CYP2A6 over CYP2C19 = test: Selectivity for CYP2A6 over CYP2C19; conditions: human
CYP2A6 over CYP2C9 = test: Selectivity for CYP2A6 over CYP2C9; conditions: human
Cytochrome P450 2C9 = Cytochrome P450 2C9 (Homo sapiens, UniProt P11712); test: Inhibition of human CYP2C9
Chain of Cytochrome P450 2C9 (P11712 whole entry): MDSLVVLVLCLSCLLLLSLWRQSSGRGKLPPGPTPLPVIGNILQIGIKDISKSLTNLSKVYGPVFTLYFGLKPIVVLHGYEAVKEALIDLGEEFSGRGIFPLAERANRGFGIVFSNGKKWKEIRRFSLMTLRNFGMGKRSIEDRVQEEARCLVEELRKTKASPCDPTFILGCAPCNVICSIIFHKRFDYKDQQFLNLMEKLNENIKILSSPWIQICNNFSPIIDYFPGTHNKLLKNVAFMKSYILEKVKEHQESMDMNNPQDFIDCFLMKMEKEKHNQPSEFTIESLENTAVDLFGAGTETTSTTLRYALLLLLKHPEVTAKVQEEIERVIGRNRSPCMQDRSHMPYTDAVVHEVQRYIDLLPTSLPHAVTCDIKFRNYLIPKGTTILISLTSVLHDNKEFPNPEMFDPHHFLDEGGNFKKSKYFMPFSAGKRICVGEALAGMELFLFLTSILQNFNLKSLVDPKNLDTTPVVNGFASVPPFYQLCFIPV

[2] = (§1) Stability in human liver microsome
CYP2A6 over CYP2B6 = test: Selectivity for CYP2A6 over CYP2B6
[3] = (§2) Stability in mouse liver microsome
Mus musculus = species on record: Mus musculus; test: as §2; conditions: microsomes
Liver microsomes = test: as §1; conditions: microsomes
Cytochrome P450 2A6 [4] = target: T1, Cytochrome P450 2A6; test: Displacement of coumarin from CYP2A6 at 100 uM; type: ADME

Row | Compound | selectivity ratio (CYP2A6 over CYP2D6) | selectivity ratio (CYP2A6 over CYP2E1) | pKi (Cytochrome P450 2A6 [1]) | pKi (Cytochrome P450 2D6) | pKi (Cytochrome P450 3A4) | pKi (Cytochrome P450 2B6) | pKi (Cytochrome P450 2C19) | pKi (Cytochrome P450 2E1) | selectivity ratio (CYP2A6 over CYP3A4) | selectivity ratio (CYP2A6 over CYP2C19) | selectivity ratio (CYP2A6 over CYP2C9) | pKi (Cytochrome P450 2C9) | half-life ([2]; liver microsomes) | selectivity ratio (CYP2A6 over CYP2B6) | half-life ([3]; liver microsomes) | Stability (Mus musculus) | other results
1 | CNCC#Cc1cccnc1 | > 74 | 43.1 | 5.57 | < 3.40 | 3.60 | 4.22 | 4.79 | 3.93 | 92.8 | 6.1 | 2.3 | 5.20 | 2.27 h | 22.2 | 2.05 h |  | 
2 | c1cncc(-c2c[nH]cn2)c1 | 133 | 17 | 6.10 | 4.00 | 4.15 | 4.29 | 4.57 | 4.89 | 93 | 35 | 28 | 4.68 | 11.7 h | 69 | 11.6 h |  | 
3 | CNCc1ccc(-c2cccnc2)o1 | 57 | > 250 | 6.10 | 4.34 | < 3.40 | 3.75 | 4.82 | < 3.40 | > 250 | 19 | 48 | 4.42 | 1.1 h |  |  | Stable | 
4 | Cc1ccsc1-c1ccc(F)nc1 | > 310 | 285 | 6.22 | < 3.40 | 4.71 | 5.23 | 4.68 | 3.74 | 5.9 | 32 | > 310 | < 3.40 | 1.4 h | 9.1 |  | Stable | 
5 | Cc1cscc1-c1cccnc1 |  |  | 6.05 | 4.02 | > 4.60 | 5.51 | 4.90 | 5.51 |  |  |  | 4.21 |  |  | 0.783 h |  | T1/2 (Liver microsomes): 0.533 h
6 | CN(C)CC#Cc1cccnc1 | > 3 | > 3 | 4.17 | < 3.40 | < 3.40 | 3.72 | < 3.40 | < 3.40 | > 3 | > 3 | > 3 | < 3.40 |  | 2.8 |  | Stable | Stability (Liver microsomes): Stable
7 | SCc1ccc(-c2cccnc2)o1 | < 0.9 | < 0.1 | > 6.10 | 6.15 | 5.51 | 5.96 | 6.70 | 7.30 | > 4.1 | < 0.3 |  | 6.40 |  | > 1.5 |  |  | half-life ([2]; microsomes): 1.98 h; Activity (Cytochrome P450 2A6 [4]): Active; half-life ([3]; microsomes): 1.75 h
8 | CSCc1ccc(-c2cccnc2)o1 | 81 | 0.9 | 6.10 | 4.19 | 5.13 | 4.33 | 5.15 | 6.10 | 9.2 | 8.8 | 18 | 4.85 |  | 59 |  |  | half-life ([2]; microsomes): 0.983 h; half-life ([3]; microsomes): 0.633 h
9 | c1cncc(-c2ccc(C3SCCS3)o2)c1 | 2.8 | 0.04 | 4.86 | 4.42 | 5.96 | 5.28 | 6.15 | 6.22 | 0.1 | 0.1 | 0.1 | 5.89 | 1.53 h | 0.4 | 0.4 h |  | Activity (Cytochrome P450 2A6 [4]): Active
10 | CN(C)Cc1ccc(-c2cccnc2)o1 |  |  |  | 3.90 | 3.83 | < 3.40 | 4.10 | < 3.40 |  |  |  | 3.95 |  |  |  | Stable | 
11 | Cn1cnc(-c2cccnc2)c1 |  | 5 | 6.40 | 3.99 | 3.88 | 4.14 | 4.21 | 5.70 |  |  |  | 4.40 |  |  | 8.02 h |  | Stability (Liver microsomes): Stable
12 | c1cncc(-c2ccsc2)c1 | > 286 | > 286 | 6.15 | 3.91 | 4.55 | 4.52 | 4.25 | < 3.40 | 40 | 81 | 69 | 4.32 | 4.52 h | 42 |  | Stable | 
13 | CN(C)Cc1ccc(-c2cccnc2)s1 | 0.2 | > 3 | 4.18 | 4.84 | 3.96 | < 3.40 | 4.28 | < 3.40 | 1.6 | 0.8 | 1.5 | 3.99 |  | > 3 | 5.72 h |  | Stability (Liver microsomes): Stable
14 | Cc1nccn1-c1cccnc1 |  |  |  |  |  |  |  |  |  |  |  |  | 2.22 h |  |  | Stable | 
15 | CNCc1ccc(-c2cccnc2)s1 |  |  | 6.22 | 4.25 | < 3.40 | < 3.40 | 4.52 | < 3.40 |  |  |  | 4.47 | 1.6 h |  |  | Stable | 
16 | NCCCc1cccnc1 | > 30 | > 30 | 5.18 | < 3.40 | < 3.40 | < 3.40 | < 3.40 | < 3.40 | > 400 | > 30 | > 30 | < 3.40 |  | > 30 |  | Stable | Stability (Liver microsomes): Stable
17 | CC(=O)SCc1ccc(-c2cccnc2)o1 | 53 | 0.3 | 6.10 | 4.34 | 5.82 | 6.05 | 5.41 | 6.70 | 1.7 | 4.6 | 3.4 | 5.54 | 0.5 h | 1 | 0.3 h |  | Activity (Cytochrome P450 2A6 [4]): Not Active
